The conditions of data set [1]: cited from earlier work; for Bone marrow toxicity: in vivo.
For data set [2] the following is noted: cited from earlier work; for Benefit when given before platinum(II): given before the platinum (II); for Binding to plasma platinum: in vivo.
The nature of data set [3]: Protection of rats against DDP toxicity by disulfiram via stomach tube, Example 1. It is filed as in vivo, Male F344 (Fischer) rats. Conditions: disulfiram 2 g/kg via stomach tube 30 minutes before and 30 minutes after DDP. How it is done: Male F344 (Fischer) rats (average weight, 150 g) were obtained from the Charles River Breeding Laboratory. They were divided into groups of four rats, placed in methacrylate cages, and given National Institute of Health chow for rodents and water ad lib, for 7 days. Average weight of the rats was 180 g (range, 160-200 g) when injected.
Tetraethylthiuram disulfide (disulfiram) was obtained from Sigma Chemical Co., St. Louis MO. Sodium DDTC was prepared according to the procedure of Klopper and van der Kerk, Rec. Trav. Chim. 70:917 (1951); immediately prior to injection, it was dissolved in sterile water at a concentration of 100 mg/ml. Sodium bicarbonate was prepared in sterile water at a concentration of 50 mg/ml. All injections were carried out under brief ether anesthesia.
Otherwise, weight and BUN were determined at 5 days after injection, reportedly the time of maximal observed toxicity. Evidence of gastrointestinal toxicity was obtained qualitatively by noting the presence or absence of diarrhea 3-5 days after injection.
Disulfiram was administered to two groups of rats in lieu of NaDDTC, as described subsequently.

For data set [4] the following is noted: polar solvents; cited from earlier work.
Data set [5] in a line: Urinary excretion of free and conjugated DDTC. The class given is in vivo, rats. Conditions: combination of DDTC and acetazolamide, even when NaDDTC dose reduced by 80%. The source says:
Intravenous administration was explored in an attempt to deliver larger quantities of free DDTC anion to the likely site of toxicity in the renal tubule; urinary excretion of DDTC was monitored as a means of estimating changes in tubular levels of free DDTC. The standard assay for DDTC anion utilizes a spectrophotometric determination following reaction with cupric ion to form the colored Cu(DDTC)2 complex. Unfortunately, the affinity of cupric ion for sulfur ligands is such that this metal ion will catalyze the decomposition of the DDTC glucuronide and therefore will not discriminate between free and conjugated DDTC. Ferric ion does react selectively with the free ligand, thereby providing a convenient assay for both free and total DDTC in urine.
Excretion of free and conjugated NaDDTC in the urine of rats was measured as follows. NaDDTC was administered in selected doses via intraperitoneal or intravenous injection. Rats were then placed in metabolic cages and urine was collected and analyzed at 30 minute intervals. Urine samples (0.1-5.0 ml) were added to 2 ml of a solution containing ferric nitrate (20 mM) and sodium citrate (200 mM). The dark Fe (DDTC)3 complex was extracted into chloroform (4 ml) by vortexing for 5 minutes. The mixture was chilled, centrifuged for 1 minute, and the chloroform layer separated. To this chloroform solution was added saturated aqueous cupric sulfate (2 ml), and the mixture was vortexed for 5 minutes, chilled, and centrifuged for 1 minute. The chloroform solution was separated and the Cu(DDTC)2absorbance measured at 435 nm. Free DDTC was determined by comparison of absorbance to a standard curve. Total DDTC was determined by addition of 0. 05-1.0 ml of urine to 3 ml of saturated cupric sulfate followed by incubation at 45° for 30 minutes. The resulting Cu(DDTC)2 complex was extracted into chloroform and analyzed as described above. DDTC-glucuronide excretion was determined by subtraction of free from total DDTC.

The values that follow come from US4594238A (Regents of University of Minnesota, priority 1984, dated 1986).

Regarding `NCC1(CN)CCCCC1.O=S(=O)([O-])[O-].[Pt+2]` [TNO-6], in data set [1], the Bone marrow toxicity entry was “increased bone marrow toxicity”.

For the compound “chlorohydroxy-isopropylamineplatinum [CHIP]”, the Kidney toxicity result in data set [1] (compared to first generation agents) is reported as “low in kidney toxicity”. Moreover, in data set [1], the Bone marrow toxicity result is given as “high in bone marrow toxicity”.

As for `N.N.O=C([O-])C1(C(=O)[O-])CCC1.[Pt+2]` [CBDCA], in data set [1], the Bone marrow toxicity entry is “increased bone marrow toxicity”.

On to `CC(C)(S)[C@@H](N)C(=O)O` [penicillamine], for which, in data set [2], the “Benefit when given before platinum(II)” value is “Some benefit was reported” and the “Binding to plasma platinum” value is recorded as “may have the potential to bind to plasma platinum”.

As to `CCN(CC)C(=S)SSC(=S)N(CC)CC` [disulfiram, Tetraethylthiuram disulfide], in data set [3], the BUN in survivors was 55 to 180 mg/dL; the “Necropsy, intestine” value is given as “grossly hemorrhagic fluid-filled intestine”; the “Weight loss and BUN levels in the survivors” value was “highly variable”. For the same compound, in data set [3] (in each group), the “Animals that died before day 5” value is reported as “Fifty”. For the same compound, the “Solubility in polar solvents” value in data set [4] was “relatively low solubility, particularly in polar solvents”.

With `N[C@@H](CS)C(=O)O` [cysteine], in data set [2], the “Benefit when given before platinum(II)” value was “Some benefit was reported” and the “Binding to plasma platinum” value is “may have the potential to bind to plasma platinum”.

As for `CC(=O)Nc1nnc(S(N)(=O)=O)s1` [acetazolamide, reference compound], in data set [5], the “Renal excretion of DDTC with acetazolamide” value was “significant increases in renal excretion of DDTC”.
